9 molecules from PubChem BioAssay AID328 (DTP/NCI, 2004) can be followed below.

Values joined by “and” are separate entries in the source; they are usually repeats but may differ in a detail not shown here. Identical values can stand only once. Toxic doses and inconclusive results are not listed.

The subject of the assay is BDF1 mice, P388 leukemia ip, median survival T/C. The experiment in a line: NCI In Vivo Anticancer Drug Screen. Data for tumor model P388 Leukemia (intraperitoneal) in B6D2F1 (BDF1) mice. As to conditions: endpoint: median survival time, higher = longer survival. The essentials:
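Reported as T/C, where T is the survival measurement in dosed animals and C the same measurement in vehicle controls.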

The mark [1] stands for this setting: dose: 100.0 mg/kg/injection, schedule: Q04DX003 (ip), vehicle: saline with Tween-80.
The mark [2] stands for this setting: dose: 400.0 mg/kg/injection, schedule: Q04DX003 (ip), vehicle: saline with Tween-80.
The mark [3] stands for this setting: dose: 200.0 mg/kg/injection, schedule: Q04DX003 (ip), vehicle: saline with Tween-80.

As for `Cc1cc2c(c3oc(C4(C)OC4C4OC4C)cc(=O)c13)C(=O)c1c(O)c(C3CC(C)(N(C)C)C(O)C(C)O3)cc(C3CC(N(C)C)C(O)C(C)O3)c1C2=O` (stereo unspecified), the T/C reads like this: (dose: 0.01 mg/kg/injection, schedule: Q01DX009 (oral), vehicle: saline) 105 % of control; (dose: 0.03 mg/kg/injection, schedule: Q01DX009 (oral), vehicle: saline) 105 % of control; (dose: 0.06 mg/kg/injection, schedule: Q01DX001 (oral), vehicle: saline) 95 % of control; (dose: 0.06 mg/kg/injection, schedule: Q01DX009 (oral), vehicle: saline) 110 % of control; (dose: 0.06 mg/kg/injection, schedule: Q01DX010 (ip), vehicle: saline) 109 % of control; (dose: 0.12 mg/kg/injection, schedule: Q01DX001 (ip), vehicle: saline) 155 % of control. Also, the T/C is, setting by setting: (dose: 0.12 mg/kg/injection, schedule: Q01DX001 (oral), vehicle: saline) 104 % of control; (dose: 0.12 mg/kg/injection, schedule: Q01DX009 (oral), vehicle: saline) 110 % of control; (dose: 0.24 mg/kg/injection, schedule: Q01DX001 (ip), vehicle: saline) 190 % of control; (dose: 0.24 mg/kg/injection, schedule: Q01DX001 (oral), vehicle: saline) 104 % of control; (dose: 0.48 mg/kg/injection, schedule: Q01DX001 (ip), vehicle: saline) 200 % of control; (dose: 0.48 mg/kg/injection, schedule: Q01DX001 (oral), vehicle: saline) 100 % of control. Also, the T/C was 95 % of control (dose: 0.1 micrograms/kg/injection, schedule: Q01DX010 (ip), vehicle: carboxymethylcellulose (CMC)); 113 % of control (dose: 0.1 micrograms/kg/injection, schedule: Q01DX010 (ip), vehicle: other); 95 % of control (dose: 0.2 micrograms/kg/injection, schedule: Q01DX010 (ip), vehicle: carboxymethylcellulose (CMC)); 118 % of control (dose: 0.2 micrograms/kg/injection, schedule: Q01DX010 (ip), vehicle: other); 100 % of control (dose: 0.3 micrograms/kg/injection, schedule: Q01DX010 (ip), vehicle: saline); 95 % of control (dose: 0.3 micrograms/kg/injection, schedule: Q01DX010 (ip), vehicle: steriod suspending solution). Besides, the T/C was 104 % of control (dose: 0.5 micrograms/kg/injection, schedule: Q01DX010 (ip), vehicle: carboxymethylcellulose (CMC)); 109 % of control (dose: 0.5 micrograms/kg/injection, schedule: Q01DX010 (ip), vehicle: other); 116 % of control (dose: 0.5 micrograms/kg/injection, schedule: Q01DX010 (ip), vehicle: saline); 95 % of control (dose: 0.6 micrograms/kg/injection, schedule: Q01DX010 (ip), vehicle: saline); 120 % of control (dose: 0.6 micrograms/kg/injection, schedule: Q01DX010 (ip), vehicle: steriod suspending solution); 109 % of control (dose: 1.0 micrograms/kg/injection, schedule: Q01DX010 (ip), vehicle: other). The T/C reads like this: (dose: 1.0 micrograms/kg/injection, schedule: Q01DX010 (ip), vehicle: saline) 120 % of control; (dose: 1.3 micrograms/kg/injection, schedule: Q01DX010 (ip), vehicle: saline) 122 % of control; (dose: 2.0 micrograms/kg/injection, schedule: Q01DX010 (ip), vehicle: other) 113 % of control; (dose: 4.0 micrograms/kg/injection, schedule: Q01DX010 (ip), vehicle: carboxymethylcellulose (CMC)) 118 % of control; (dose: 4.0 micrograms/kg/injection, schedule: Q01DX010 (ip), vehicle: saline) 159 % of control; (dose: 5.0 micrograms/kg/injection, schedule: Q01DX010 (ip), vehicle: carboxymethylcellulose (CMC)) 175 % of control. Moreover, the T/C runs as follows: (dose: 5.0 micrograms/kg/injection, schedule: Q01DX010 (ip), vehicle: steriod suspending solution) 150 % of control; (dose: 6.0 micrograms/kg/injection, schedule: Q01DX009 (ip), vehicle: saline) 155 % of control; (dose: 8.0 micrograms/kg/injection, schedule: Q01DX010 (ip), vehicle: saline) 163 % of control; (dose: 10.0 micrograms/kg/injection, schedule: Q01DX010 (ip), vehicle: carboxymethylcellulose (CMC)) 190 % of control; (dose: 10.0 micrograms/kg/injection, schedule: Q01DX010 (ip), vehicle: steriod suspending solution) 160 % of control; (dose: 12.0 micrograms/kg/injection, schedule: Q01DX009 (ip), vehicle: saline) 170 % of control. Further, the T/C is, setting by setting: (dose: 16.0 micrograms/kg/injection, schedule: Q01DX010 (ip), vehicle: saline) 118 % of control; (dose: 20.0 micrograms/kg/injection, schedule: Q01DX010 (ip), vehicle: saline) 154 % of control; (dose: 20.0 micrograms/kg/injection, schedule: Q01DX010 (ip), vehicle: steriod suspending solution) 180 % of control; (dose: 30.0 micrograms/kg/injection, schedule: Q01DX010 (ip), vehicle: saline) 109 % of control; (dose: 32.0 micrograms/kg/injection, schedule: Q01DX010 (ip), vehicle: other) 177 % of control; (dose: 60.0 micrograms/kg/injection, schedule: Q01DX010 (ip), vehicle: saline) 86 % of control.
For `OC(C1CO1)C(O)C1CO1` (stereo unspecified), the T/C is, setting by setting: (dose: 1.0 mg/kg/injection, schedule: Q01DX009 (ip), vehicle: saline) 282 % of control; (dose: 2.0 mg/kg/injection, schedule: Q01DX009 (ip), vehicle: saline) 168 % of control; (dose: 2.5 mg/kg/injection, schedule: Q01DX009 (ip), vehicle: saline) 190 % of control; (dose: 5.0 mg/kg/injection, schedule: Q01DX009 (ip), vehicle: saline) 260 % of control; (dose: 6.7 mg/kg/injection, schedule: Q01DX001 (ip), vehicle: saline) 189 % of control; (dose: 6.7 mg/kg/injection, schedule: Q04DX003 (ip), vehicle: saline) 250 % of control. For the same molecule, the T/C was 336 % of control and 209 % of control and 219 % of control (dose: 10.0 mg/kg/injection, schedule: Q01DX001 (ip), vehicle: saline); 110 % of control (dose: 10.0 mg/kg/injection, schedule: Q01DX009 (ip), vehicle: saline); 413 % of control (dose: 10.0 mg/kg/injection, schedule: Q04DX003 (ip), vehicle: saline); 231 % of control and 292 % of control and 333 % of control (dose: 12.5 mg/kg/injection, schedule: Q01DX001 (ip), vehicle: saline); 387 % of control (dose: 12.5 mg/kg/injection, schedule: Q04DX003 (ip), vehicle: saline); 280 % of control and 292 % of control and 318 % of control (dose: 15.0 mg/kg/injection, schedule: Q01DX001 (ip), vehicle: saline).
As for `CC(=O)NNC(=O)c1ccncc1`, the T/C was 100 % of control (dose: 100.0 mg/kg/injection, schedule: Q04DX003 (ip), vehicle: saline); 118 % of control (dose: 200.0 mg/kg/injection, schedule: Q04DX003 (ip), vehicle: saline); 100 % of control (dose: 400.0 mg/kg/injection, schedule: Q04DX003 (ip), vehicle: saline).
For `Nc1nc(C=O)c(-c2cccc3ccccc23)c(=O)[nH]1`, the T/C reads like this: under setting [1], 113 % of control; under setting [2], 150 % of control.
With `CCCNC1=C(N2CC2)C(=O)C(NCCC)=C(N2CC2)C1=O`, the T/C reads like this: (dose: 1.5 mg/kg/injection, schedule: Q01DX009 (ip), vehicle: saline) 161 % of control; (dose: 3.0 mg/kg/injection, schedule: Q01DX009 (ip), vehicle: saline) 166 % of control and 203 % of control; (dose: 6.0 mg/kg/injection, schedule: Q01DX009 (ip), vehicle: saline) 251 % of control and 208 % of control.
In the case of `CC[N+]1(CC)CC[N+]2(CC1)CC[N+]1(CC[N+](CC)(CC)CC1)CC2`, the T/C (dose: 50.0 mg/kg/injection, schedule: Q01DX009 (ip), vehicle: saline) was 101 % of control; the T/C (dose: 100.0 mg/kg/injection, schedule: Q01DX009 (ip), vehicle: saline) was 101 % of control; the T/C (dose: 200.0 mg/kg/injection, schedule: Q01DX009 (ip), vehicle: saline) is 106 % of control.
With `O=Cc1ccc(C(=O)O)cc1`, the T/C reads like this: under setting [1], 100 % of control; under setting [3], 109 % of control; under setting [2], 113 % of control.
Regarding `Cc1ccc(C(=O)C(Br)C(Br)c2ccccc2)cc1` (stereo unspecified), the T/C was 95 % of control under setting [1], 94 % of control under setting [3] and 103 % of control under setting [2].
Regarding `NC(Cc1ccc(O)cc1)C(=O)O` (stereo unspecified), the T/C (dose: 100.0 mg/kg/injection, schedule: Q01DX009 (ip), vehicle: saline with Tween-80) was 100 % of control; the T/C under setting [1] was 100 % of control; the T/C (dose: 200.0 mg/kg/injection, schedule: Q01DX009 (ip), vehicle: saline with Tween-80) was 92 % of control; the T/C under setting [3] is 91 % of control; the T/C under setting [2] is 95 % of control.
